How the values were obtained:
MDA-MB-435 cells [1] = assay: Apoptosis assay, annexin V/propidium iodide flow cytometry; type: cell-based, human
Procedure: To quantify drug-induced apoptosis, annexin V/propidium iodide staining was performed and analyzed by flow cytometry. MDA-MB-435 cells were treated with 10 μM compound 1, 2, or 4 for 24 and 48 h. After treatment, both floating and adherent cells were combined and subjected to annexin V/propidium iodide staining using an annexin V-FITC apoptosis detection kit (Oncogene Research Products, San Diego, Calif.) according to manufacturer's recommendations. Untreated control cells (48 h) were maintained in parallel to drugtreated groups. Double staining was used to distinguish between viable, early apoptotic, and necrotic or late apoptotic cells. The resulting fluorescence (FITC-A channel for green fluorescence and PE-A channel for red fluorescence) was measured by flow cytometry using a BD LSRII flow cytometer (BD Biosciences, San Jose, Calif.).

SOD1 = assay: Kinexus 628-antibody microarray; type: cell-based, human; details: MDA-MB-435 cells, 0.1 μM, 24 h
Excerpt: To better understand the mechanisms of action of this class of novel PACMA compounds, we subjected cell lysates from untreated and compound 1-treated MDA-MB-435 cells to the Kinexus 628-antibody microarray analysis in search of potential signaling molecules; 350 pan-specific and 270 phospho-site antibodies were included to track changes in protein expression and phosphorylation status. The cell lysates were run in parallel on the Kinexus antibody chip and the differential binding of dye-labeled proteins was detected and quantified. Proteins with significant expression changes were then identified and used as the basis for signaling pathway interpretation.
MDA-MB-435 cells were treated with 0.1 μM compound 1 for 24 h. After treatment, cells were washed with ice-cold PBS to remove residual medium. Cells were then lysed in 200 μL of lysis buffer (20 mM MOPS, pH 7.0, 2 mM EGTA, 5 mM EDTA, 30 mM sodium fluoride, 60 mM β-glycerophosphate, pH 7.2, 20 mM sodium pyrophosphate, 1 mM sodium orthovanadate, 1 mM phenylmethylsulfonylfluoride, 3 mM benzamidine, 5 μM pepstatin A, 10 μM leupeptin, 1% Triton X-100, 1 mM dithiothreitol) and collected into a microcentrifuge tube. […] The supernatants were then transferred to a cleanmicrocentrifuge tube, and the protein concentrations were measured using BCA protein assay. […]

[2] = system: HCT116 p53^+/+ colon cancer cell line; assay: MTT cytotoxicity assay, HCT116 p53+/+; type: cell-based; details: Homo sapiens, HCT-116, 72 h exposure
Summary of the method: (§1)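 Cells were seeded, allowed to attach overnight, then exposed continuously to drug for 72 h. MTT (0.5 mg/mL final) was added for 4 h at 37 °C, formazan was dissolved in DMSO and absorbance read at 570 nm. IC50 came from log(drug concentration) versus percent cells killed, triplicate.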

[3] = system: HCT116 p53^−/− colon cancer cell line; assay: MTT cytotoxicity assay, HCT116 p53-/-; type: cell-based; details: Homo sapiens, HCT-116, 72 h exposure
Summary of the method: as §1

[4] = system: 5637 bladder cancer cell line; assay: MTT cytotoxicity assay, 5637; type: cell-based, human; details: Homo sapiens, 72 h exposure
Summary of the method: as §1

MDA-MB-435 cells [5] = assay: Mitochondrial superoxide production (MitoSOX Red); type: cell-based, human; details: IC50 or 3×IC50, 24 hours
Procedure: After drug treatments, a solution of 5 μM MitoSOX Red mitochondrial superoxide indicator (Invitrogen, Carlsbad, Calif.) was added, and cells were incubated for 10 min at 37° C. Cells were then washed three times with Hank's balanced salt solution (HBSS) to remove excess MitoSOX. After washing, cells were either observed under the fluorescence microscope or collected by trypsinization, washed twice with HBSS, and measured for superoxide production using a BD LSRII flow cytometer (BD Biosciences, San Jose, Calif., USA). Data were analyzed with the BD FACSDiva software package (BD Biosciences, San Jose, Calif., USA).

p53 = assay: Western blotting of p53 protein level; type: cell-based, human; details: MDA-MB-435 cells, 1 μM, 24 to 72 hours
Procedure: (§2) Cells were detached using 1×trypsin-EDTA solution and collected by centrifugation at 1200 rpm for 5 min. Cells were then lysed in 80 μL of 1× cell lysis buffer (50 mM Tris-HCl, pH 7.5, 150 mM NaCl, and 1% NP-40) and pelleted by centrifugation at 14,000 rpm for 20 min at 4° C. Protein concentration of the whole cell lysates was measured using BCA protein assay and equal amounts of total protein were resolved on a 10% tris-glycine gel via SDS-PAGE. The separated proteins were electro-blotted onto nitrocellulose membrane and blocked in 5% BSA/PBS for 1 h at room temperature. The membrane was probed with anti-p53 (SC-126, Santa Cruz Biotechnology Inc.), anti-caspase 9 (Cat. no. 9508; Cell Signaling Technology), anti-a-tubulin (SC-5286, Santa Cruz Biotechnology Inc.), and anti-GAPDH(Y3322GAPDH, Biochain Institute, Inc.) antibodies at 4 C overnight. Horseradish peroxidase-conjugated secondary antibodies (Invitrogen, Carlsbad, Calif.) in combination with SuperSignal Dura (ThermoFisher, Rockford, Ill.) enhanced chemiluminescence (ECL) solutions were used to visualize proteins of interest with a ChemiDoc Imaging system (Bio-Rad, Hercules, Calif.).

[6] = system: UMUC3 bladder cancer cell line; assay: MTT cytotoxicity assay, UMUC3; type: cell-based; details: Homo sapiens, 72 h exposure
Summary of the method: as §1

[7] = system: HEY ovarian cancer cell line; assay: Cytotoxicity assay, HEY; type: cell-based; details: Homo sapiens; MTT, 72 h exposure (Table 2)
Summary of the method: as §1

[8] = system: doxorubicin-resistant NCI/ADR-RES ovarian cancer cell line; assay: Cytotoxicity assay, NCI/ADR-RES; type: cell-based; details: Homo sapiens, MTT, 72 h exposure (Table 2)
Summary of the method: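 Cells attached overnight, then continuously exposed to drug for 72 h. MTT (0.5 mg/mL final) added 4 h at 37 °C, formazan dissolved in DMSO, absorbance at 570 nm, triplicates; IC50 from log concentration versus % cells killed.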

caspase-9 = assay: Western blotting of full-length caspase-9 protein level; type: cell-based, human; details: MDA-MB-435 cells, 1 μM, after 24 hours, maintained up to 72 hours
Procedure: as §2

[9] = system: HT29 colon cancer cell line; assay: MTT cytotoxicity assay, HT29; type: cell-based; details: Homo sapiens, HT-29, 72 h exposure
Summary of the method: as §1

C#CC(=O)N(c1cc(OC)cc(OC)c1)C(C(=O)NC1CCCCC1)c1ccc(OC)cc1 (stereo not drawn) [Compound 1, N-[2-(Cyclohexylamino)-1-(4-methoxyphenyl)-2-oxoethyl]-N-(3,5-dimethoxyphenyl)Propynamide]
induction of early apoptosis (MDA-MB-435 cells [1]; 10 μM, 24 hours): failed to induce early apoptosis
increase in early apoptotic cells (MDA-MB-435 cells [1]; 10 μM, 48 h): 8%
percentage of late apoptotic cells (MDA-MB-435 cells [1]; 10 μM, 48 hours): 35%
induction of apoptosis (MDA-MB-435 cells [1]; 24 and 48 hours): induce apoptosis
SOD1 expression (SOD1): up-regulated
IC50 [2]: 12.5 ± 2.1 µM
IC50 [3]: 11 µM
IC50 [4]: 2.2 ± 0.2 µM
mitochondrial superoxide production, flow cytometry (MDA-MB-435 cells [5]): induce significant amounts of superoxide
p53 protein level (p53): up-regulated
IC50 [6]: > 20 µM
IC50 [7]: 4.4 ± 3 µM
IC50 [8]: 0.3 µM
decrease in full-length caspase-9 protein level (caspase-9): 2 fold
IC50 [9]: 6.3 ± 1.5 µM

Source: patent US20130071328A1, “Propynoic Acid Carbamoyl Methyl-Amides and Pharmaceutical Compositions and Methods Based Thereon” (UNIVERSITY OF SOUTHERN CALIFORNIA, priority 2011, published 2013)
